Reference: patent US3989701A, “Diamine-benzophenones and a process for the preparation thereof” (Richter Gedeon Vegyeszeti Gyar Rt., priority 1973, dated 1976)

Tests used:
LD50 (acute toxicity) = details: in vivo, po
liver microsomal enzymes = experiment: Enzyme inductive effect (shortening of duration of sleeping after hexobarbital); assay type: in vivo, Wistar female rats; details: for Average duration of sleeping ± S.E.: Dosage 60 mg./kg. p.o., hexobarbital 40 mg./kg. i.v. 24 hours later, control 27.4 ± 3.02
Description: To investigate the enzyme inductive effect, Wistar female rats, each weighing 40 to 50 g. were treated with pure solvent, or with a dosage of 60 mg./kg. of phenobarbital or the compound to be tested, respectively. 24 hours after this treatment 40 mg./kg. of hexobarbital were administered intravenously into the animals. The decrease of the elimination period and the liver enzyme induction was expressed as the shortening of duration of sleeping.

[1] = Antipyretic effect (yeast- and pyragro-treated rats, rectal temperature); assay type: in vivo, male rats; details: Dosage 40 mg./kg. orally; rectal temperature recorded for 5 hours
Description: To test the antipyretic effect, a 15% yeast suspension was administered to male rats each weighing 180 ±10 g. No food was given to the animals, they could consume, however, arbitrary amount of water. 16 hours after the administration of yeast the rectal temperature of the animals was taken, and the animals were treated with pyragro in an intravenous dosage of 50 M bact./animal. The compound to be tested was administered orally into the animals, thereafter the change in rectal temperature both for the treated and the control animals was recorded for 5 hours, using an "Elab" type electrothermometer. Phenacetine, used as reference substance, and the compounds of the invention were administered in dosages of 40 mg./kg. body weight.

[2] = Effect on the central nervous system; assay type: in vivo; details: in words
[3] = Harmful effects on the kidneys; assay type: in vivo; details: in words, compared with phenacetine
yohimbine lethality = experiment: Potentiation of yohimbine lethality; assay type: in vivo, CFLP male mice
Description: To investigate the yohimbine-potentiating effect, CFLP male mice each weighing 20 to 25 g. were treated orally with the compounds according to the invention, and 1 hour after this treatment yohimbine was injected subcutaneously into the animals in a dosage of 20 mg./kg.

[4] = Rotarod / ataxis and reflex retardation

| SMILES | LD50 (LD50 (acute toxicity)) [mg/kg] | Average duration of sleeping ± S.E. (liver microsomal enzymes) [min] | other results |
| --- | --- | --- | --- |
| CCC1(c2ccccc2)C(=O)NC(=O)NC1=O [Phenobarbital, reference compound] | 240 | 5.4 ± 1.63 |  |
| CCOc1ccc(NC(C)=O)cc1 [Phenacetine, reference compound] | 2400 |  | Decrease of temperature [1]: -1.0 °C |
| CCN(c1ccccc1)c1ccc(C(=O)c2ccccc2)cc1N [C6, 3-amino-4-(N-ethyl-N-phenylamino)-benzophenone] | > 400 | 11.6 ± 2.71 |  |
| CCC(=O)Nc1cc(C(=O)c2ccccc2)ccc1N1CCOCC1.Cl [C11, 3-propionylamino-4-morpholino-benzophenone HCl] | > 450 | 9.0 ± 1.30 | enzyme-inducing effect (in words) (liver microsomal enzymes; compared with phenobarbital where stated): the same in strength as for phenobarbital; effect on the central nervous system [2]: no effect on the central nervous system |
| Nc1cc(C(=O)c2ccccc2)ccc1N1CCOCC1 [C8, 3-amino-4-morpholino-benzophenone] | > 3000 |  | Decrease of temperature [1]: -1.0 °C; harmful effects on the kidneys [3]: no harmful effects on the kidneys |
| CN1CCN(c2ccc(C(=O)c3ccccc3)cc2N)CC1 [C3, 3-amino-4-(N-methyl-piperazino)-benzophenone] | > 3000 |  | ED50 (yohimbine lethality; Mus musculus, sc, yohimbine 20 mg./kg. s.c. 1 hour after treatment, deaths counted at 24 hours, probit analysis): 30 mg/kg; antidepressant activity / yohimbine lethality increasing effect (in words) (yohimbine lethality; compared with imipramine where stated): inferior in antidepressant activity to imipramine; TD50 (in vivo): 160 mg/kg; ataxis or reflex retardation ([4]; in the active dosage): causes no ataxis or reflex retardation |
| CN(C)CCCN1c2ccccc2CCc2ccccc21 [Imipramine, 5-(3-dimethylaminopropyl)-10,11-dihydro-5H-dibenz(b,f)azepin, reference compound] |  |  | TD50 ([4]; rotarod): 28 mg/kg |
| CC(C)CN(CC(C)C)c1ccc(C(=O)c2ccccc2)cc1N [C7, 3-amino-4-(N,N-diisobutylamino)-benzophenone] | > 600 | 10.0 ± 1.92 |  |
| CCCCCCCCCCCCCCCC(=O)Nc1cc(C(=O)c2ccccc2)ccc1N1CCOCC1 [C12, 3-palmitoylamino-4-morpholino-benzophenone] | > 500 | 10.4 ± 1.02 |  |
